In patent publication US12466784B2, “Analogs of pterostilbene amino acid bearing carbonates for treating a non-alcoholic fatty liver disease and nonalcoholic steatohepatitis” (APICAL MOLECULAR BIOTECH CO., LTD., priority 2020, dated 2025):
Where “and” joins values, the source holds several entries; their conditions need not be identical. Equal entries are not always repeated.

Tests used:
MCD diet NASH mice = assay: Serum AST and ALT of compounds treated-NASH mice (MCD diet); format: in vivo, Male C57BL/6 mice
Method: (§1) Animals and experimental protocol: Male C57BL/6 mice, 4 weeks of age, were purchased from Laboratory Animal Center (Taiwan, China) were maintained under the procedures and guidelines provided by the Institutional Animal Care and Use Committee of the Health Research Institutes (Taiwan, China). They were maintained with free access to pellet food and water in stainless-steel cages at a temperature of 21±2° C. with a 12 h light/dark cycle.
(§2) Mice were randomly divided into five groups and treated as follows: (1) MCD diet+PG/TPSG (2) MCD diet+100 mg/kg all compounds. After 28 days, animals were sacrificed for the collection of blood for determination of plasma ALT and AST concentrations, and liver samples for H&E stain.
(§3) After 28 days, animals were sacrificed for the collection of blood for determination of plasma ALT and AST concentrations, and liver samples for H&E stain.

[1] = In vitro stability in pH 1.2 solution (USP Gastric fluid without enzymes); conditions: 37° C.
Method: Sample collection: At 0, 0.17, 0.5, 1, 2, 4 and 6 h, 100 mL of aliquots were taken from the incubation mixture and placed into centrifuge tubes containing 100 μL of ice-cold acetonitrile and 1 μm internal standard where the reaction was terminated.

[2] = tested on: hepatic steatosis induced by MCD diet; assay: Histological examination (H&E stain) of liver of MCD diet mice; format: in vivo, Male C57BL/6 mice; conditions: for Avg: average of Scores of the group; for Steatosis / Ballooning / Fibrosis / Inflammation / Steastosis: score per animal; for Steatosis: in PG/TPSG (1:1); for Scores: total score per animal
Method: as §1, §2, §3

[3] = MCD diet mice, 100 mg/kg oral, PG/TPSG (1:1)
[4] = MCD diet mice, 100 mg/kg oral once daily, 5 times a week, hydrochloride, 100 mg/kg
[5] = MCD diet mice, 100 mg/kg oral, PG/TPSG (1:1), hydrochloride, 100 mg/kg
[6] = sum of Scores of the 4 animals of the group, 100 mg/kg oral, PG/TPSG (1:1)
[7] = MCD diet mice, 100 mg/kg oral (Table 2)
[8] = MCD diet mice, 100 mg/kg oral (Table 4 study)
[9] = MCD diet mice, 75 mg/kg oral, hydrochloride, 75 mg/kg
[10] = MCD diet mice, 100 mg/kg oral (Table 3 study)
[11] = MCD diet mice, 100 mg/kg oral (Table 3 study), hydrochloride, 100 mg/kg
[12] = MCD diet mice, 150 mg/kg oral, hydrochloride, 150 mg/kg
[13] = MCD diet mice, 100 mg/kg oral once daily, 5 times a week

For CCOc1cc(/C=C/c2ccc(OC(=O)OCCNC(=O)CN)cc2)cc(OCC)c1.Cl [Compound 6b, (E)-2-(2-aminoacetamido)ethyl (4-(3,5-diethoxystyryl)phenyl) carbonate hydrochloride], the “Serum ALT (U/L)” value (MCD diet NASH mice; [3]) was 454.38 U/L, the “Serum AST (U/L)” value (MCD diet NASH mice; [3]) was 408.75 U/L and the “compound remaining in pH = 1.2 solution (%)” value (“compound remaining … (%)” below) ([1]; Time 0 h) was 100.0%. The “compound remaining … (%)” value ([1]; Time 0.167 h) was 130.5%, the “compound remaining … (%)” value ([1]; Time 0.5 h) was 103.9% and the “compound remaining … (%)” value ([1]; Time 1 h) was 111.7%. For the same compound, the “compound remaining … (%)” value ([1]; Time 2 h) was 97.9%, the “compound remaining … (%)” value ([1]; Time 4 h) was 99.2% and the “effect on MCD diet-induced steatohepatitis (H&E staining), in words” value (from here on “effect … (H&E staining), in words”) ([2]; MCD diet mice, 100 mg/kg oral) was “prevented MCD diet-induced steatohepatitis”. For the same compound, the Avg ([2]; 100 mg/kg oral, PG/TPSG (1:1)) was 7.00, the Steatosis [2, 4] was 3 (2×) and 2 (2×) and the Ballooning [2, 3] was 2. The Fibrosis [2, 3] was 0, the Inflammation [2, 5] was 3 (2×) and 2 (2×) and the Sum [2, 6] was 28. The Scores [2, 5] was 8 (2×) and 6 (2×).

In the case of “(E)-2-(2-amino-3-methylbutanamido)ethyl (4-(3,5-dimethoxystyryl)phenyl) carbonate hydrochloride [Compound 5c]”, the “Serum ALT (U/L)” value (MCD diet NASH mice; MCD diet mice, 75 mg/kg oral) is reported as 164.40 U/L, the “Serum AST (U/L)” value (MCD diet NASH mice; MCD diet mice, 75 mg/kg oral) is reported as 275.00 U/L and the “effect on serum concentrations of AST and ALT, in words” value (from here on “effect on serum concentrations”) (MCD diet NASH mice; [7]) is reported as “significantly inhibited the serum concentrations of AST and ALT”. For the same compound, the “Serum ALT (U/L)” value (MCD diet NASH mice; [8]) was 92.60 U/L, the “Serum AST (U/L)” value (MCD diet NASH mice; [8]) was 245.80 U/L and the “Serum ALT (U/L)” value (MCD diet NASH mice; [3]) was 205.13 U/L. For the same compound, the “Serum AST (U/L)” value (MCD diet NASH mice; [3]) was 274.00 U/L, the “Serum ALT (U/L)” value (MCD diet NASH mice; MCD diet mice, 150 mg/kg oral) was 82.80 U/L and the “Serum AST (U/L)” value (MCD diet NASH mice; MCD diet mice, 150 mg/kg oral) was 192.00 U/L. For the same compound, the “effect on serum concentrations” value (MCD diet NASH mice; MCD diet mice, 75, 100 and 150 mg/kg oral (Table 4)) was “significantly inhibited the serum concentrations of AST and ALT with dose-dependent manners”, the “compound remaining … (%)” value ([1]; Time 0 h) was 100.0% and the “compound remaining … (%)” value ([1]; Time 0.167 h) was 88.5%. For the same compound, the “compound remaining … (%)” value ([1]; Time 0.5 h) was 93.2%, the “compound remaining … (%)” value ([1]; Time 1 h) was 96.0% and the “compound remaining … (%)” value ([1]; Time 2 h) was 91.7%. For the same compound, the “compound remaining … (%)” value ([1]; Time 4 h) was 97.4%, the “anti-NASH/NAFLD activities, in words” value ([2]; MCD diet mice) was “significant anti-NASH/NAFLD activities” and the “effect … (H&E staining), in words” value ([2]; MCD diet mice, 100 mg/kg oral) was “prevented MCD diet-induced steatohepatitis”. The “effect on MCD diet-induced steatohepatitis (H-E staining), in words” value ([2]; MCD diet mice, 75, 100 and 150 mg/kg oral (FIG. 1, Table 3)) was “prevented MCD diet-induced steatohepatitis”, the Avg ([2]; 75 mg/kg oral) was 6.2 and the Avg ([2]; 100 mg/kg oral (Table 3 study)) was 4.2. It also gave an Avg ([2]; 150 mg/kg oral) of 3.2, a Ballooning ([2]; MCD diet mice, 75 mg/kg oral) of 2 and an Inflammation ([2]; MCD diet mice, 75 mg/kg oral) of 1. The Steastosis ([2]; MCD diet mice, 75 mg/kg oral once daily, 5 times a week) was 3, the Fibrosis [2, 9] was 1 and 0 (4×) and the Fibrosis [2, 10] was 0. The Inflammation [2, 10] was 0, the Ballooning [2, 11] was 2 (3×) and 1 (2×) and the Steastosis ([2]; MCD diet mice, 100 mg/kg oral once daily, 5 times a week (Table 3 study), hydrochloride, 100 mg/kg) was 3 (3×) and 2 (2×). For the same compound, the Fibrosis ([2]; MCD diet mice, 150 mg/kg oral) was 0, the Inflammation ([2]; MCD diet mice, 150 mg/kg oral) was 0 and the Steastosis ([2]; MCD diet mice, 150 mg/kg oral once daily, 5 times a week, hydrochloride, 150 mg/kg) was 2 (3×) and 1 and 3. The Ballooning [2, 12] was 1 (4×) and 2, the Sum ([2]; sum of Scores of the 5 animals, 75 mg/kg oral) was 31 and the Sum ([2]; sum of Scores of the 5 animals, 100 mg/kg oral (Table 3 study)) was 21. The Sum ([2]; sum of Scores of the 5 animals, 150 mg/kg oral) was 16, the Scores [2, 9] was 7 and 6 (4×) and the Scores [2, 11] was 5 (3×) and 3 (2×). For the same compound, the Scores [2, 12] was 3 (3×) and 2 and 5.

For COc1cc(/C=C/c2ccc(OC(=O)OCCNC(=O)C(C)N)cc2)cc(OC)c1.Cl (stereo not shown) [Compound 5b, (E)-2-(2-aminopropanamido)ethyl (4-(3,5-dimethoxystyryl)phenyl) carbonate hydrochloride], the “effect on serum concentrations” value (MCD diet NASH mice; [7]) was “significantly inhibited the serum concentrations of AST and ALT”, the “Serum ALT (U/L)” value (MCD diet NASH mice; [3]) was 180.88 U/L and the “Serum AST (U/L)” value (MCD diet NASH mice; [3]) was 235.25 U/L. For the same compound, the “effect … (H&E staining), in words” value ([2]; MCD diet mice, 100 mg/kg oral) was “prevented MCD diet-induced steatohepatitis”, the Avg ([2]; 100 mg/kg oral, PG/TPSG (1:1)) was 4.5 and the Steatosis [2, 4] was 2 (3×) and 3. For the same compound, the Fibrosis [2, 3] was 0, the Ballooning [2, 5] was 1 (3×) and 2 and the Inflammation [2, 5] was 2 and 1 (3×). The Sum [2, 6] was 19 and the Scores [2, 5] was 5 and 4 (2×) and 6.

In the case of COc1cc(/C=C/c2ccc(OC(=O)NCCNC(=O)C(N)C(C)C)cc2)cc(OC)c1.Cl (stereo not shown) [Compound 7c, (E)-4-(3,5-dimethoxystyryl)phenyl (2-(2-amino-3-methylbutanamido)ethyl) carbamate hydrochloride], the “Serum ALT (U/L)” value (MCD diet NASH mice; [3]) is reported as 252.13 U/L, the “Serum AST (U/L)” value (MCD diet NASH mice; [3]) is reported as 435.25 U/L and the “effect … (H&E staining), in words” value ([2]; MCD diet mice, 100 mg/kg oral) is reported as “prevented MCD diet-induced steatohepatitis”. The Avg ([2]; 100 mg/kg oral, PG/TPSG (1:1)) was 7.75, the Steatosis [2, 4] was 3 (3×) and 2 and the Ballooning [2, 3] was 2. For the same compound, the Fibrosis [2, 3] was 0, the Inflammation [2, 3] was 3 and the Sum [2, 6] was 31. For the same compound, the Scores [2, 5] was 8 (3×) and 7.

With CCC(C)C(N)C(=O)NCCOC(=O)Oc1ccc(/C=C/c2cc(OC)cc(OC)c2)cc1.Cl (stereo not shown) [Compound 5e, (E)-2-(2-amino-3-methylpentanamido)ethyl (4-(3,5-dimethoxystyryl)phenyl) carbonate hydrochloride] the “Serum ALT (U/L)” value (MCD diet NASH mice; [3]) was 209.62 U/L, the “Serum AST (U/L)” value (MCD diet NASH mice; [3]) was 419.25 U/L and the “effect … (H&E staining), in words” value ([2]; MCD diet mice, 100 mg/kg oral) was “prevented MCD diet-induced steatohepatitis”. For the same compound, the Avg ([2]; 100 mg/kg oral, PG/TPSG (1:1)) was 7.75, the Steatosis [2, 13] was 3 and the Ballooning [2, 3] was 2. For the same compound, the Fibrosis [2, 3] was 0, the Inflammation [2, 5] was 3 (3×) and 2 and the Sum [2, 6] was 31. For the same compound, the Scores [2, 5] was 8 (3×) and 7.

In the case of COc1cc(/C=C/c2ccc(OC(=O)OCCNC(=O)C(N)C(C)O)cc2)cc(OC)c1.Cl (stereo not shown) [Compound 5h, (E)-2-(2-amino-3-hydroxybutanamido)ethyl (4-(3,5-dimethoxystyryl)phenyl) carbonate hydrochloride], the “effect on serum concentrations” value (MCD diet NASH mice; [7]) is reported as “significantly inhibited the serum concentrations of AST and ALT”, the “Serum ALT (U/L)” value (MCD diet NASH mice; [3]) is reported as 150.75 U/L and the “Serum AST (U/L)” value (MCD diet NASH mice; [3]) is reported as 301.50 U/L. The Avg ([2]; 100 mg/kg oral, PG/TPSG (1:1)) was 8, the Steatosis [2, 13] was 3 and the Ballooning [2, 3] was 2. The Fibrosis [2, 3] was 0, the Inflammation [2, 3] was 3 and the Sum [2, 6] was 32. For the same compound, the Scores [2, 3] was 8.

For COc1cc(/C=C/c2ccc(OC(=O)OCCNC(=O)C3CCCN3)cc2)cc(OC)c1.Cl (stereo not shown) [Compound 5t, (E)-4-(3,5-dimethoxystyryl)phenyl (2-(pyrrolidine-2-carboxamido)ethyl) carbonate hydrochloride], the “Serum ALT (U/L)” value (MCD diet NASH mice; [3]) was 263.00 U/L, the “Serum AST (U/L)” value (MCD diet NASH mice; [3]) was 370.25 U/L and the “effect … (H&E staining), in words” value ([2]; MCD diet mice, 100 mg/kg oral) was “prevented MCD diet-induced steatohepatitis”. For the same compound, the Avg ([2]; 100 mg/kg oral, PG/TPSG (1:1)) was 7.75, the Steatosis [2, 4] was 3 (3×) and 2 and the Ballooning [2, 3] was 2. The Fibrosis [2, 3] was 0, the Inflammation [2, 3] was 3 and the Sum [2, 6] was 31. The Scores [2, 5] was 8 (3×) and 7.

In the case of COc1cc(/C=C/c2ccc(OC(=O)OCCNC(=O)C(N)CCSC)cc2)cc(OC)c1.Cl (stereo not shown) [Compound 5f, (E)-2-(2-amino-4-(methylthio)butanamido)ethyl (4-(3,5-dimethoxystyryl)phenyl) carbonate hydrochloride], the “effect on serum concentrations” value (MCD diet NASH mice; [7]) is reported as “significantly inhibited the serum concentrations of AST and ALT”, the “Serum ALT (U/L)” value (MCD diet NASH mice; [3]) is reported as 153.00 U/L and the “Serum AST (U/L)” value (MCD diet NASH mice; [3]) is reported as 241.75 U/L. The “effect … (H&E staining), in words” value ([2]; MCD diet mice, 100 mg/kg oral) was “prevented MCD diet-induced steatohepatitis”, the Avg ([2]; 100 mg/kg oral, PG/TPSG (1:1)) was 6.25 and the Steatosis [2, 13] was 2. For the same compound, the Fibrosis [2, 3] was 0, the Ballooning [2, 5] was 1 (3×) and 2 and the Inflammation [2, 5] was 2 (3×) and 1. It also gave a Sum [2, 6] of 25 and a Scores [2, 3] of 5.
